Among the data in patent publication US20070172421A1, “Substituted pyrrolidine-2-ones” (priority 2004, published 2007) are melting point values, retold here.

Where a name gives a salt, the structure may show the parent alone.

A word on the melting point: it is the temperature, or range, at which the solid turns liquid. For the molecule `CN1C(=O)[C@@H](CN2CCCCC2)C[C@H]1c1cnc(-c2sccc2Cl)s1.Cl` [Example F4], the melting point was in the range of 207 to 210 °C.
The same measure for `CN1C(=O)[C@@H](CN2CCCCC2)C[C@H]1c1cnc(-c2sccc2Cl)s1.Cl` [Example F3]: 215 to 220 °C; for `CC(=O)Nc1ccccc1C#C[C@H]1C[C@@H](CN2CCCCC2)C(=O)N1C.Cl`: 135 to 140 °C.
As for `CN1C(=O)[C@@H](CN2CCCCC2)C[C@H]1c1ccc(-c2cccc(Cl)c2)s1.Cl` [Example E10], the figure is 155 to 158 °C.
As for `CN1C(=O)[C@@H](CN2CCCCC2)C[C@H]1c1cnc(-c2ccccc2Cl)s1.Cl` [Example F1], the melting point fell in the range of 178 to 183 °C.
`CN1C(=O)C(CN2CCCCC2)CC1C1CC1c1ccccc1Cl` (stereo not shown) [Example C2, 5-[2-(2-Chloro-phenyl)-cyclopropyl]-1-methyl-3-piperidin-1-ylmethyl-pyrrolidin-2-one] gave a melting point of 87 to 90 °C.
`CN1C(=O)[C@@H](CN2CCCCC2)C[C@H]1c1ccc2c(c1)CCCC2.Cl` [Example A5] gave a melting point of 208 to 210 °C.
Molecule `CN1C(=O)[C@@H](CN2CCCCC2)C[C@H]1C#Cc1ccccc1Cl.Cl` [Example D5] showed a melting point of 166 to 169 °C.
The same measure for `CN1C(=O)[C@@H](CN2CCCCC2)C[C@H]1c1ccc(Br)cc1` (as salt: HCl) [Example A7, (−)-cis-5-(4-Bromo-phenyl)-1-methyl-3-piperidin-1-ylmethyl-pyrrolidin-2-one]: 55 to 58 °C.
In turn, `CN1C(=O)[C@@H](CN2CCCCC2)C[C@H]1c1ccc2c(c1)CCCC2.Cl` [Example A6] had a melting point of 234 to 238 °C.
As for `CN1C(=O)[C@@H](CN2CCCCC2)C[C@H]1c1cnc(-c2ccccc2Cl)s1.Cl` [Example F2], the figure is 171 to 176 °C; as for `Cc1cccc(C#C[C@@H]2C[C@H](CN3CCCCC3)C(=O)N2C)c1.Cl` [Example D1], 163 to 167 °C.
Turning to `Cc1cc(C)cc([C@@H]2C[C@H](CN3CCCCC3)C(=O)N2C)c1.Cl` [Example A4], the melting point was 172 to 180 °C.
As for `CN1C(=O)[C@@H](CN2CCCCC2)C[C@H]1c1ccc(-c2ccccc2Cl)cc1.Cl` [Example H3], the figure is 130 to 135 °C; as for `CN1C(=O)[C@@H](CN2CCCCC2)C[C@H]1c1ccc(-c2cccc(Cl)c2)s1.Cl` [Example E9], 162 to 163 °C.
In the case of `CN1C(=O)[C@@H](CN2CCCCC2)C[C@H]1c1ccc(-c2ccccc2Cl)cc1.Cl` [Example H2], the melting point lay in the range of 134 to 139 °C.
For `CN1C(=O)[C@@H](CN2CCCCC2)C[C@H]1C#Cc1ccccc1.Cl` [Example D3], the melting point is 197 to 201 °C.
As for `CN1C(=O)[C@@H](CN2CCCCC2)C[C@H]1C#Cc1ccccc1.Cl` [Example D4], the figure is 199 to 203 °C.
As to `Cc1ccc([C@@H]2C[C@H](CN3CCCCC3)C(=O)N2C)cc1C.Cl` [Example A1], the melting point was in the range of 143 to 147 °C.
The same measure for `Cc1cc(C)cc([C@@H]2C[C@H](CN3CCCCC3)C(=O)N2C)c1.Cl` [Example A3]: 184 to 190 °C.
The molecule `CN1C(=O)[C@@H](CN2CCCCC2)C[C@H]1c1ccc(Br)s1` [Example E1, (+)-cis-5-(5-Bromo-thiophen-2-yl)-1-methyl-3-piperidin-1-ylmethyl-pyrrolidin-2-one] returned a melting point of 69 to 71 °C.
As for `Cc1cccc(C#C[C@@H]2C[C@H](CN3CCCCC3)C(=O)N2C)c1.Cl` [Example D2], the figure is 169 to 172 °C; as for `CN1C(=O)[C@@H](CN2CCCCC2)C[C@H]1c1ccc(-c2ccc3c(c2)OCO3)cc1` (relative stereo) [Example H5, cis-5-(4-(Benzo[1,3]dioxol-5-yl)-phenyl)-1-methyl-3-piperidin-1-ylmethyl-pyrrolidin-2-one], 110 to 112 °C.
The same measure for `Cc1ccc([C@@H]2C[C@H](CN3CCCCC3)C(=O)N2C)cc1C.Cl` [Example A2]: 138 to 142 °C; for `CN1C(=O)[C@@H](CN2CCCCC2)C[C@H]1C#Cc1ccccc1Cl.Cl` [Example D6]: 160 to 165 °C.
